Laboratory results reported in patent publication US20250082653A1, “THERAPEUTIC PRODUCT IN THE FORM OF A DENTAL GEL” (CB21 PHARMA, S.R.O., priority 2021, published 2025).
In brackets after ≈: the same amount, converted by molar mass.

Columns and labels:
[1] = system: human gingival fibroblasts (HGF); test: MTT cytotoxicity test in human gingival fibroblasts; format: cell-based; conditions: CBD 0.25 and 0.5 μmol/l; 24 h incubation
Protocol: In an in vitro study of the effect of cannabidiol (CBD), human gingival fibroblasts (HGF) isolated from gingiva taken from volunteers at the Department of Oral, Maxillofacial and Facial Surgery of the University Hospital and Medical Faculty of Palacký University Olomouc approved by the Ethics Committee of the University Hospital and Medical Faculty of Palacký University Olomouc (2019) were used. In the first phase of the experiment, a safe CBD concentration was determined based on the results of MTT, which is cytotoxicity test based on the reduction of 3-(4,5-dimethylthiazol-2-yl)-2,5-diphenyltetrazolium bromide (MTT) to the corresponding formazane. The test was performed according to M. D. Maines, L. G. Costa, D. J. Reed, et al. Current protocols in toxicology. New York: John Wiley & Sons. (1998).
Cells seeded in a 96-well plate at a count of 3×10^4 cells/ml and 100 μl/well, which were […], 100 μl MTT was added (0.5 mg/ml in serum-free culture medium), the mixture was incubated for 2 h. After the incubation period and aspiration of the MTT mixture, 100 μl DMSO (dimethyl sulfoxide) with NH3 (1%, v/v) was added. Absorbance was measured at 540 nm.

[2] = system: IL-6; test: IL-6 production (ELISA) in HGF after P. gingivalis LPS inflammation induction; format: cell-based, human; conditions: CBD 0.25 and 0.5 μmol/l, 6 and 24 h
Protocol: (§1) According to the values obtained from the MTT test, two subtoxic concentrations of CBD (0.25 and 0.5 μmol/l) were selected and used to determine its anti-inflammatory effect. Inflammation to HGF was induced by P. gingivalis lipopolysaccharide (LPS) according to How K. Y., Song K. P., Chan K. G., Porphyromonas gingivalis: An Overview of Periodontopathic Pathogen below the Gum Line. Front Microbiol 2016; 7:53. HGFs were seeded in 6-well plates and allowed to grow to confluence. The cells were washed with 1 ml of PBS, and then LPS (1 μg/ml, 2 ml/well) in serum-free culture medium was added, and incubated for 24 hours. A portion of the cells was left without the application of LPS (i.e., without induced inflammation). At the end of the incubation period, CBD in serum-free culture medium at concentrations of 0.25 and 0.5 μmol/l was added (2 ml/well) for 6 and 24 hours, both for cells cultured with LPS and for cells without LPS application. At selected time intervals, the culture medium was collected and stored at −80° C. for further analysis. The levels of proinflammatory interleukins IL-6, IL-8 (Human ELISA Development Kit, Cat. No. 900-K16 and 900-K18, PeproTech, Baria, Czech Republic) and matrix metalloproteinase (MMP-2) (Duo Set ELISA Development System, Cat. No. DY902, R&D, Bio-Techne, UK) were determined by ELISA. […]

[3] = system: IL-8; test: IL-8 production (ELISA) in HGF after P. gingivalis LPS inflammation induction; format: cell-based, human; conditions: CBD 0.25 and 0.5 μmol/l, 6 and 24 h
Protocol: as §1

[4] = system: matrix metalloproteinase (MMP-2); test: MMP-2 production (ELISA) in HGF after P. gingivalis LPS inflammation induction; format: cell-based, human; conditions: CBD 0.25 and 0.5 μmol/l, 6 and 24 h
Protocol: as §1

[5] = system: Porphyromonas gingivalis CCM 3985; test: MIC by microdilution method (CLSI M11), anaerobic; format: cell-based; conditions: P. gingivalis, 60 h anaerobic incubation, three independent experiments
Protocol: (§2) Strains Streptococcus mutans CCM 7409 and Porphyromonas gingivalis CCM 3985 were selected for testing. Both were obtained from Czech Collection of Microorganisms (Brno). BHI+kh medium (Brain-heart infusion (Oxoid, UK) enriched with vitamin K (0.001 mg/ml) and hemin ([…])) was used to cultivate S. mutans, and for P. gingivalis medium WCHA—Wilkins-Chalgren agar (HiMedia, India), with 7% sheep erythrocytes and vitamin K (0.001 mg/ml). (Blaskovich M A T, Kavanagh A M, Elliott A G, Zhang B, Ramu S, Amado M et al. The antimicrobial potential of cannabidiol. Commun Biol 2021; 4(1):1-18).
(§3) The susceptibility of selected microbes to tested substance was verified by the microdilution method according to Clinical and Laboratory Standards Institute (M Methods for Antimicrobial Susceptibility Testing of Anaerobic Bacteria. 9th ed. CLSI standard M11. Wayne, PA: Clinical and Laboratory Standards Institute; 2018).
(§4) Basic working solutions were prepared from the tested substance by dilution in DMSO. […] The required concentrations of the tested substance were then prepared by serial dilution, dilution factor 1:2. 135 μl of each dilution was pipetted into the wells of a 96-well round-bottomed hardened polystyrene microtiter plate (Gamma České Budějovice, a.s.).
(§5) From fresh cultures of the test strains on Wilkins-Chalgren agar (WCHA; HiMedia, India), with 7% sheep erythrocytes and vitamin K, suspensions were prepared in BHI+kh at an optical density corresponding to 0.5 degrees McFarland turbidity scale (after subtraction of optical density of the medium). The suspensions were then diluted in the ratio 1:15 (final inoculum concentration 5×10^6 CFU/ml). Individual wells with 135 μl of the CBD solutions and control wells were inoculated with 15 μl of the prepared inoculum.
(§6) The inoculated microtiter plates were incubated in an Anaerobic Work Station (Ruskinn Technology, UK) with an anaerobic atmosphere (80% N2, 10% CO2 and 10% H2) at 37° C. The incubation was performed for 60 hours for P. gingivalis and 24 hours for S. mutans.
(§7) The sterility of the medium was checked by transferring 150 μl BHI+kh to three wells of a microtiter plate. […]
(§8) After evaluating the MIC, the contents of the wells with the highest concentration of CBD and with visible microbial growth were inoculated onto WCHA. […] After 48 hours (S. mutans) or 14 days (P. gingivalis) of incubation in an anaerobic atmosphere, the purity of the grown microbial culture was evaluated. […]
(§9) The growth of the microbe, which manifested itself by turbidity of the medium or as a sediment at the bottom of the well of the microtiter plate, was monitored in the individual wells of the microtiter plate. […] The minimum inhibitory concentration (MIC) was determined as the lowest concentration of the substance at which no microbial growth was observed. […]

[6] = system: Streptococcus mutans CCM 7409; test: MIC by microdilution method (CLSI M11), anaerobic; format: cell-based; conditions: S. mutans, 24 h anaerobic incubation, three independent experiments
Protocol: as §2, §3, §4, §5, §6, §7, §8, §9

[7] = system: gingival fibroblasts; test: Permeation of CBD into gingival fibroblasts (UHPLC/MS); format: in vitro ADME, human; conditions: 0.5 μM CBD
Protocol: Gingival fibroblasts (obtained from three healthy patients) were seeded in a 6-well plate (well area 9.6 cm^2) and allowed to grow until the next day (confluence). CBD was applied to the cells at a concentration of 0.5 μM for 6 and 24 hours. At the end of the incubation period, 250 μl of medium was mixed with 250 μl of methanol with 1% (w/w) HCl and the cells were washed 2× with PBS (1 ml), scraped from 4 wells into PBS (phosphate buffer, 1 ml), centrifuged for 5 minutes at 3000 rpm. After centrifugation, PBS was removed and 0.5 ml of methanol with 1% (w/w) HCl was added and the cells were sonicated (cycle 0.5, amplitude 50, 10 times). The samples were then centrifuged for 2 minutes at 8000 rpm and the supernatant was pipetted into a clean tube and subjected to UHPLC/MS analysis.
UHPLC/MS analyses were performed on an ACQUITY I Class liquid chromatograph (Waters, Milford, MA, USA). It is a modular system consisting of a chromatographic pump (Binary Solvent Manager), autosampler (Sample Manager) and column thermostat (Column Manager). Kinetex Polar C18 (100×2.1 mm i.d., 2.6 μm; Phenomenex, CA, USA) was used as the analytical column. The system was operated with a gradient elution of the mobile phase (MFA 0.1% formic acid in water, MFB 0.1% formic acid in acetonitrile) at a flow rate of 0.6 ml/min and a temperature of 25° C. The gradient elution had the following parameters: 0 to 11 min 50 to 70% MFB, 11 to 12.5 min 70 to 100% MFB, 12.5 to 13 min 100 to 50% MFB, 13 to 16 min 50% MFB. The injection volume was 2 μl.
A high resolution Synapt G2-S mass spectrometer (Waters Corp., Manchester, UK) connected to the UPLC system via an electrospray ionization (ESI) interface was used for the metabolic study. The ion source was operated in positive ionization mode with a capillary voltage of 3.0 kV and a sample cone of 30 V. The source temperature and desolvation gas temperature were set at 120° C. and 320° C. The desolvation gas flow rate was 900 l/h. […]

C=C(C)[C@@H]1CCC(C)=C[C@H]1c1c(O)cc(CCCCC)cc1O [CBD, cannabidiol]
Cytotoxicity by MTT test [1]: subtoxic
levels of IL-6 [2]: decrease
levels of IL-8 [3]: decrease
MMP-2 levels [4]: no significant changes
MIC range [5]: 1 to 2 µg/mL
MIC ([5]; Porphyromonas gingivalis, CCM3985, read-out: MIC median): 1.5 µg/mL (≈ 4.77 µM)
MIC range [6]: 16 µg/mL (≈ 50.9 µM)
MIC ([6]; Streptococcus mutans, CCM7409, read-out: MIC median): 16 µg/mL (≈ 50.9 µM)
absorption of CBD by gingival fibroblasts ([7]; 6 and 24 h, cell lysates): absorbed relatively quickly
CBD in the culture medium ([7]; 6 and 24 h incubation, UHPLC/MS): not detected
metabolites of CBD ([7]; after 24 h of cultivation): no metabolites of CBD were identified
